The structures appear in SMILES notation.

Consider 64 molecules from publication PMC6882465, “Towards discovery of new leishmanicidal scaffolds able to inhibit Leishmania GSK-3” (Journal of Enzyme Inhibition and Medicinal Chemistry, 2019).

The target in this test is LdGSK-3 (Leishmania donovani, UniProt A6N857). The test can be described thus: Inhibition of LdGSK-3 with Kinase Glo. It is filed as biochemical. Particulars: Table S2; 10 µM.
LdGSK-3, sequence (A6N857 entry or part of it): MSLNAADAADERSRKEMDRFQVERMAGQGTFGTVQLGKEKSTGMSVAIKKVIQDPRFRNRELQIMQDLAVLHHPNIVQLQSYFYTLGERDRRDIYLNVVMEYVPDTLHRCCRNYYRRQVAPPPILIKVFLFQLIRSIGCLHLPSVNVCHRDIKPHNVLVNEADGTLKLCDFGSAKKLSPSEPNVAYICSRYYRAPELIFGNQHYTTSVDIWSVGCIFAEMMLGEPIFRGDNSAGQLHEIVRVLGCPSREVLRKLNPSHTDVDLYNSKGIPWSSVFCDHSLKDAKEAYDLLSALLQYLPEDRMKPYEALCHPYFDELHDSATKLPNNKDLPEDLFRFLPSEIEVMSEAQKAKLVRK
Experimental: Assessment of inhibition of LdGSK-3 with Kinase Glo^TM
The reaction was allowed to proceed for 30 min at 30 °C, then it was incubated at room temperature for another 10 min after addition of Kinase Glo reagents (Promega, Ref. V6712). ATP consumption by LdGSK-3 was measured indirectly through end-point luminescence measurement of each well in a Varioskan Flash microplate reader (Thermo).
Take `Cc1nc2c(-c3nc(-c4ccccc4N)n[nH]3)cccn2c1C` [Compound 113]: the “% inhibition @ 10µM (initial screening on LdGSK3)” value (from here on “% inhibition @ 10µM”) is given as 1.40±0.50%.
Regarding `COc1ccc([N+](=O)[O-])cc1NC(=O)c1cc(Cl)ccc1O` [Compound 210], the “% inhibition @ 10µM” value is given as 17.65±3.55%.
Take `Cn1ccnc1-c1nc(NCc2ccccc2Cl)cc(C2CC2)n1.O=C(O)C(F)(F)F` [Compound 129]: the “% inhibition @ 10µM” value is 8.90±6.75%.
As to `COc1ccc(Oc2ccc(C(C)N(C)c3ncc4c(N)nc(N)nc4n3)cc2)cc1` (stereo not shown) [Compound 56], the “% inhibition @ 10µM” value turned out to be 0.50±2.95%.
On to `CCOc1ccc(Nc2ccc(S(=O)(=O)N3CCN(C)CC3)cc2[N+](=O)[O-])cc1OCC` [Compound 166], for which the “% inhibition @ 10µM” value was determined as 18.60±2.15%.
For the molecule `COc1cccc(C(=O)[C@H]2C[C@@H]2CN(Cc2ccccn2)Cc2ccccn2)c1` [Compound 153], the “% inhibition @ 10µM” value is -5.50±2.15%.
As for `COCc1cc(Nc2ccc(Cl)cc2)nc(-c2ccccn2)n1` [Compound 27], the “% inhibition @ 10µM” value came to 6.35±5.75%.
On to `Cc1ccc(NC(C)C(=O)Nc2ccc(C#N)cc2)cc1S(=O)(=O)N1CCCCC1` (stereo not shown) [Compound 137], for which the “% inhibition @ 10µM” value is reported as 9.35±1.30%.
For `CN(C)CCN(C)Cc1ccc(Cl)cc1NS(=O)(=O)c1ccc(Cl)c(Cl)c1` [Compound 204], the “% inhibition @ 10µM” value came out at 8.00±4.85%.
Next, `Cc1cc2cc(CNc3ccc4c(c3)OCO4)c(=O)n(CCO)c2cc1C` [Compound 188]: 20.90±4.45%.
With `Cc1ccccc1CNc1cc(C2CC2)nc(-c2nccn2C)n1.O=C(O)C(F)(F)F` [Compound 49], the “% inhibition @ 10µM” value came to 5.60±2.35%.
As for `Nc1nc(-c2ccccn2)nc(-n2nc(-c3ccccc3)cc2N)n1.O=C(O)C(F)(F)F.O=C(O)C(F)(F)F.O=C(O)C(F)(F)F.O=C(O)C(F)(F)F.O=C(O)C(F)(F)F.O=C(O)C(F)(F)F.O=C(O)C(F)(F)F.O=C(O)C(F)(F)F` [Compound 177], the “% inhibition @ 10µM” value stood at 17.70±1.20%.
On to `O=C(CCc1ccc(-c2ccccc2)o1)N1CCN(c2ccc(O)cc2)CC1` [Compound 178], for which the “% inhibition @ 10µM” value was 28.65±1.95%.
Consider `CCOc1ccccc1C(=O)Nc1nnc(-c2ccc3c(c2)OCO3)s1` [Compound 191], for which the “% inhibition @ 10µM” value came out at 12.20±2.70%.
The result for `CCCn1c(NC(=O)CCn2cc(Br)cn2)nc2ccccc21` [Compound 70] reads 3.80±1.25%; that for `Nc1nc(-c2ccccc2)cc(-c2nc3ncccc3[nH]2)n1` [Compound 169], 32.90±2.70%.
For the molecule `CCN(Cc1cccs1)C(=O)CSc1nnc(-c2ccc3c(c2)OCO3)o1` [Compound 197], the “% inhibition @ 10µM” value came out at 10.05±1.90%.
For `OCC1CCCCN1c1cc(-c2ccccn2)nc(Nc2ccccc2)n1` (stereo not shown) [Compound 99], the “% inhibition @ 10µM” value is reported as 0.60±0.60%.
`Cc1nc(-c2ccc3c(c2)OCO3)sc1C(=O)NCc1ccc2c(c1)OCO2` [Compound 205]: the “% inhibition @ 10µM” value amounted to 14.00±2.25%.
As to `COc1ccc(C2=NCC(CSc3nnc(-c4ccc5c(c4)OCO5)o3)S2)cc1` (stereo not shown) [Compound 125], the “% inhibition @ 10µM” value is 10.60±1.00%.
Regarding `O=C(CN(Cc1ccccn1)Cc1ccccn1)NCc1csc(-c2cccs2)n1.O=C(O)C(F)(F)F` [Compound 68], the “% inhibition @ 10µM” value amounted to 6.80±1.95%.
Turning to `COCCn1c(-c2ccc3c(c2)OCO3)cnc1NCc1ccccc1OC.O=C(O)C(=O)O` [Compound 164], the “% inhibition @ 10µM” value was found to be 1.15±1.40%.
Turning to `CC(c1ccccn1)N(C)Cc1nc2ccccc2n1C(C)C` (stereo not shown) [Compound 85], the “% inhibition @ 10µM” value came to 3.45±4.90%.
With `CC(C)(C)Nc1nc(-c2ccccn2)nc2ccccc12` [Compound 192], the “% inhibition @ 10µM” value was -2.40±2.70%.
As to `CC(C)Nc1nc(Cl)nc2ccccc12` [Compound 106], the “% inhibition @ 10µM” value was -4.60±0.90%.
Take `COc1ccc(Nc2nc(-c3ccccn3)cs2)c(OC)c1` [Compound 157]: the “% inhibition @ 10µM” value came to 4.50±4.45%.
Take `Cc1nnc(-c2nc(NCc3ccc(Cl)cc3)c3cccnc3c2O)[nH]1` [Compound 31]: the “% inhibition @ 10µM” value is 8.20±1.70%.
For the molecule `CCS(=O)(=O)Nc1ccc(C2=NN(C(=O)c3cccs3)C(c3ccccc3OC)C2)cc1` (stereo not shown) [Compound 108], the “% inhibition @ 10µM” value was 5.15±1.90%.
The result for `COc1cc2c(cc1OC)[C@H]1[C@@H](C)c3ccc(OC)c(OC)c3CN1CC2` [Compound 130] reads 12.85±2.80%; that for `CC(CCc1ccccc1)NC(=O)CN(Cc1ccccn1)Cc1ccccn1.O=C(O)C(F)(F)F` (stereo not shown) [Compound 134], 5.25±1.70%; that for `O=C(Nc1nc(-c2ccccn2)cs1)N1C[C@H]2C[C@@]2(c2ccccc2)C1` [Compound 47], 1.55±0.55%.
Take `COc1ccc(CNc2nsc3ccccc23)cc1OC` [Compound 150]: the “% inhibition @ 10µM” value stood at 13.55±4.65%.
In the case of `NC(=O)c1ccsc1NC(=O)c1ccc([N+](=O)[O-])s1` [Compound 117], the “% inhibition @ 10µM” value was 6.20±1.15%.
As to `O=C(COc1nn(-c2ccccc2)c2ncccc12)NCc1ccccc1` [Compound 180], the “% inhibition @ 10µM” value is 17.50±3.45%.
As for `N#Cc1cccc(CNc2ccc(-c3cnn(CC4CC4)c(=O)c3C#N)cc2)c1` [Compound 63], the “% inhibition @ 10µM” value is on record as -3.20±0.80%.
As to `O=C(Nc1cccc(Cl)c1)Nc1ccc([N+](=O)[O-])cc1Cl` [Compound 89], the “% inhibition @ 10µM” value was 4.80±2.05%.
For `CN(C)S(=O)(=O)c1cccc(CSc2nnc(-c3ccc4c(c3)OCO4)o2)c1` [Compound 167], the “% inhibition @ 10µM” value was 38.45±1.35%.
For `O=C1CN(C(=O)c2cccc(Nc3ncc(-c4ccc5c(c4)OCO5)cn3)c2)CCN1` [Compound 67], the “% inhibition @ 10µM” value was 5.65±3.60%.
Turning to `Cc1nc2c(-c3nc(-c4ccc(N)cc4)n[nH]3)cccn2c1C` [Compound 111], the “% inhibition @ 10µM” value came to 7.35±4.65%.
Next, `COc1ccc(C2CC(c3ccc(NS(C)(=O)=O)cc3)=NN2C(=O)c2cccs2)cc1OC` (stereo not shown) [Compound 156]: 11.90±1.75%.
Turning to `O=C(Nc1cccc(S(=O)(=O)Nc2ccc(Br)cc2)c1)c1ccc([N+](=O)[O-])s1` [Compound 133], the “% inhibition @ 10µM” value turned out to be 15.75±4.25%.
Consider `CC(C)c1nn(-c2nc(N)nc(-c3ccccn3)n2)c(N)c1C1CCCCC1` [Compound 94], for which the “% inhibition @ 10µM” value worked out at 10.45±0.55%.
Next, `O=C(Nc1nc(-c2ccc(F)cc2)cs1)c1ccc([N+](=O)[O-])s1` [Compound 132]: 8.15±0.95%; `Cc1ccc(Nc2nc(C3CCCN3Cc3ccn[nH]3)cs2)nc1` (stereo not shown) [Compound 65]: -0.35±2.35%; `COc1ccccc1C(=O)Nc1nnc(-c2ccc3c(c2)OCO3)s1` [Compound 162]: 9.20±3.30%.
`Cc1nc2c(-c3ncn[nH]3)cc(NC(=O)Cc3ccccc3)cn2c1C.O=CO` [Compound 37]: the “% inhibition @ 10µM” value was 5.90±4.55%.
The result for `COc1cccc(-c2c(C)nn(-c3nc(N)nc(-c4ccccn4)n3)c2N)c1` [Compound 61] reads -2.20±1.15%.
On to `COc1cccc(Nc2cc(C)nc(-c3ccccn3)n2)c1` [Compound 32], for which the “% inhibition @ 10µM” value worked out at 8.80±4.10%.
Regarding `O=C(Nc1ccc(S(=O)(=O)N2CCCC2)cc1)c1ccc([N+](=O)[O-])s1` [Compound 59], the “% inhibition @ 10µM” value is listed as 16.15±4.10%.
Next, `Cc1nn(-c2ccccc2)nc1CNC(=O)CN(Cc1ccccn1)Cc1ccccn1.O=C(O)C(F)(F)F` [Compound 144]: 9.10±1.75%.
As for `COc1ccc(CNc2cc(C3CC3)nc(-c3nccn3C)n2)cc1.O=C(O)C(F)(F)F` [Compound 43], the “% inhibition @ 10µM” value came to 15.30±1.60%.
For `O=C(CN1CCC2(O)CCCCC2C1c1ccc2c(c1)OCO2)Nc1ccc(Cl)cc1Cl` (stereo not shown) [Compound 143], the “% inhibition @ 10µM” value stood at 2.25±0.35%.
On to `O=C(CN(Cc1ccccn1)Cc1ccccn1)NCc1ccc(-c2csnn2)cc1.O=C(O)C(F)(F)F` [Compound 154], for which the “% inhibition @ 10µM” value came out at 2.50±1.45%.
The result for `COc1ccc2ncc(=O)n(CCN3CCC(NCc4ccc(-c5cccs5)cc4)CC3)c2n1` [Compound 200] reads 20.95±1.30%; that for `O=C(c1ccc(O)c(Cl)c1)N1CCN(c2cnccn2)CC1` [Compound 96], 1.65±2.40%; that for `Cn1nc(C(=O)N2CCc3ccccc32)c2c1CCS(=O)(=O)C2` [Compound 30], 5.20±1.90%.
On to `Cc1ccccc1CNC(=O)CN(Cc1ccccn1)Cc1ccccn1.O=C(O)C(F)(F)F` [Compound 203], for which the “% inhibition @ 10µM” value was 4.90±2.30%.
Turning to `CCN(Cc1nc2ccc(C(=O)N3CCN(c4ncccn4)CC3)cc2[nH]1)C1CCCc2cccnc21` (stereo not shown) [Compound 182], the “% inhibition @ 10µM” value is 9.60±1.20%.
For `Nc1nc(-c2ccccn2)nc(N)c1Cc1c(F)cccc1Cl` [Compound 190], the “% inhibition @ 10µM” value is on record as 8.15±3.40%.
The result for `COc1ccc2ncc(Cl)c(CCN3CC[C@H](NCc4cc5c(cn4)OCS5)[C@@H](O)C3)c2n1` [Compound 183] reads 14.80±2.25%; that for `Cc1cc(-c2cccc3ccccc23)nc2nc(N)nc(N)c12` [Compound 57], 6.10±3.15%.
As for `O=C(Nc1nc2ccccc2[nH]1)c1ccc2nc[nH]c2c1` [Compound 53], the “% inhibition @ 10µM” value is -1.60±1.50%.
In the case of `COCc1cc(Nc2ccccc2)nc(-c2ccccn2)n1` [Compound 35], the “% inhibition @ 10µM” value is given as 2.90±4.05%.
`CC(C)(C)c1csc(NC(=O)c2ccc([N+](=O)[O-])s2)n1` [Compound 181]: the “% inhibition @ 10µM” value stood at 5.90±2.90%.
